Results: the NIST ThermoML archive (doi:10.1021/acs.jced.8b00213)

Tests used:
[1] = xn = mol fraction of the nth substance listed; settings: 100 kPa, Liquid, x1 = 0.25; for electrical conductivity: Alternating current cell with electrodes; for speed of sound: Single path-length method; for mass density: Vibrating tube method; for viscosity: Falling or rolling sphere viscometry
[2] = refractive index (Na D-line) (dimensionless); xn = mol fraction of the nth substance listed; settings: 100 kPa, Liquid, Standard Abbe refractometry, x1 = 0.25

CCCC[N+](CCCC)(CCCC)Cc1ccccc1.[Cl-] [benzyltributylammonium chloride] + OCC(O)CO
Settings	electrical conductivity, [1] [S/m]	mass density, [1] [kg/m3]	refractive index, [2]	speed of sound, [1] [m/s]	viscosity, [1] [mPa·s]
283.15 K	0.003	1112.02	1.5095	1908	–
288.15 K	0.005	1108.9	1.5079	1866.4	–
293.15 K	0.007	1105.78	1.5065	1833	–
298.15 K	0.009	1102.66	1.5051	1805.3	2328.1
303.15 K	0.013	1099.54	1.5036	1782	1709.2
308.15 K	0.019	1096.41	1.5021	1761.7	1112.1
313.15 K	0.025	1093.28	1.5006	1743.5	740.9
318.15 K	0.038	1090.07	1.4992	1726.8	497.7
323.15 K	0.047	1086.95	1.4977	1711.2	346.1
328.15 K	0.065	1083.85	1.4962	1696	254.6
333.15 K	0.086	1080.72	1.4948	1681.5	185.3
338.15 K	0.109	1077.58	1.4933	1667.3	138.1
343.15 K	0.138	1074.43	1.4917	1653.9	105

CCCC[N+](CCCC)(CCCC)Cc1ccccc1.[Cl-] [benzyltributylammonium chloride] + OCCO
Settings	electrical conductivity, [1] [S/m]	mass density, [1] [kg/m3]	refractive index, [2]	speed of sound, [1] [m/s]	viscosity, [1] [mPa·s]
283.15 K	0.03	1045.37	1.4993	1734.9	901.4
288.15 K	0.039	1042.15	1.4979	1716.3	598.4
293.15 K	0.048	1039	1.4963	1698.9	415.2
298.15 K	0.064	1035.88	1.4947	1682.2	286
303.15 K	0.081	1032.74	1.4932	1666.2	211
308.15 K	0.099	1029.6	1.4917	1650.5	155.5
313.15 K	0.122	1026.44	1.4901	1635.2	117.1
318.15 K	0.148	1023.29	1.4886	1620.1	89.9
323.15 K	0.181	1020.13	1.4871	1605.2	70.7
328.15 K	0.219	1016.97	1.4855	1590.5	55.8
333.15 K	0.262	1013.82	1.484	1576	43.6
338.15 K	0.315	1010.67	1.4825	1561.7	34.9
343.15 K	0.365	1007.53	1.4809	1547.9	28.1

C[N+](C)(C)Cc1ccccc1.[Cl-] [trimethylbenzylammonium chloride] + OCC(O)CO
Settings	electrical conductivity, [1] [S/m]	mass density, [1] [kg/m3]	refractive index, [2]	speed of sound, [1] [m/s]	viscosity, [1] [mPa·s]
283.15 K	0.012	1190.87	1.5126	1992.6	–
288.15 K	0.019	1187.92	1.5114	1970.8	1874.9
293.15 K	0.027	1184.97	1.5102	1953	1170.9
298.15 K	0.039	1182.02	1.5089	1937.6	753.5
303.15 K	0.055	1178.99	1.5078	1923.4	501.5
308.15 K	0.077	1176.07	1.5064	1910.1	342.7
313.15 K	0.104	1173.14	1.5052	1897.2	238.3
318.15 K	0.138	1170.19	1.5039	1884.6	171.8
323.15 K	0.181	1167.23	1.5027	1872.3	126.7
328.15 K	0.231	1164.25	1.5014	1860	95.4
333.15 K	0.283	1161.27	1.5002	1847.9	73
338.15 K	0.34	1158.29	1.4989	1835.8	58.2
343.15 K	0.413	1155.33	1.4977	1824.2	46.3

C[N+](C)(C)Cc1ccccc1.[Cl-] [trimethylbenzylammonium chloride] + OCCOCCO
Settings	electrical conductivity, [1] [S/m]	mass density, [1] [kg/m3]	refractive index, [2]	speed of sound, [1] [m/s]	viscosity, [1] [mPa·s]
283.15 K	0.088	1120.06	1.4954	1782.6	263.4
288.15 K	0.109	1116.91	1.494	1769	185.4
293.15 K	0.132	1113.75	1.4925	1755.8	134.1
298.15 K	0.165	1110.6	1.4911	1742.9	98.6
303.15 K	0.201	1107.46	1.4897	1730.2	74.8
308.15 K	0.254	1104.33	1.4884	1717.7	57.9
313.15 K	0.311	1101.21	1.4869	1705.3	44.4
318.15 K	0.356	1098.09	1.4855	1693	34.8
323.15 K	0.398	1094.99	1.4841	1680.8	27.8
328.15 K	0.474	1091.89	1.4826	1668.7	23.2
333.15 K	0.539	1088.79	1.4813	1656.6	18.7
338.15 K	0.611	1085.7	1.4798	1644.7	16
343.15 K	0.681	1082.63	1.4784	1633.1	14.2
